{"source": "patent US8506950B2", "about": "“Degradable microcapsules” (ETH Zurich, priority 2008, dated 2013)", "system": "PhCMV*-1 and PETR driven SecCell expression", "assay": "Transient expression of SecCell under antibiotic-responsive promoters in mammalian cells", "assay_type": "cell-based, human, hamster", "conditions": "HEK293-T, HeLa, HT-1080, CHO-K1, BHK-21, transient transfection", "from_the_text": "(B) Transient expression of cellulase in HEK293-T, HeLa, HT-1080, BHK-21 and CHO-K1 cells. Cellulase was either driven by a constitutive (PhCMV) or antibiotic-responsive promoters (PhCMV*-1 and PETR).\nThe Bacillus subtilis endo (1-4)-beta-glucanase was PCR-amplified from genomic DNA and fused to a strong mammalian secretion signal sequence derived from the murine Igk-chain V-12-C region. The secreted cellulase (SecCell) was cloned downstream of a constitutive promoter (PhCMV) as well as two different inducible promoters which enabled doxycycline-(PhCMV*-1) and erythromycin-(PETR) adjustable transgene expression (FIG. 1A).\nCellulase was quantified using EnzCheck® fluorescent substrate (Molecular Probes, Eugene, Oreg., USA) according to the manufacturer's protocol: 20 μl of cell culture supernatant was centrifuged at 16,000×g for one minute to remove cell debris and 15 μl of appropriate dilutions in PBS (Invitrogen, cat. no. 21600-069) were transferred to a 384-well plate containing 15 μl sodium acetate buffer (200 mM sodium acetate, pH 5.5) per well supplemented with 3 μl substrate solution. Plates were incubated at 37° C. for 30 minutes and fluorescence intensity was measured subsequently at 340 nm (excitation wavelength) and 450 nm (emission wavelength) in a Genios Pro multiwell plate reader (Tecan A G, Maennedorf, Switzerland). […]"}
{"smiles": "CC[C@H]1OC(=O)[C@H](C)[C@@H](O[C@H]2C[C@@](C)(OC)[C@@H](O)[C@H](C)O2)[C@H](C)[C@@H](O[C@@H]2O[C@H](C)C[C@H](N(C)C)[C@H]2O)[C@](C)(O)C[C@@H](C)C(=O)[C@H](C)[C@@H](O)[C@]1(C)O", "note": "[EM, erythromycin]", "values": [{"measurement": "SecCell production (cellulase activity in the culture supernatants)", "value": "repressed"}]}
